Data reported in patent US7414138B2, “Benzoxazole and benzodiazole UV-A sunscreens” (DSM IP Assets B.V., priority 2002, dated 2008).

Key:
[1] = Photostability, irradiation in high dilution with 150 W Hg-lamp (on-line Hg-lamp/HPLC); type: physicochemical; conditions: for photostability (in words): irradiated in high dilution with a Hg-lamp 150 W from Heraeus
Protocol: The photostability is measured in an on-line system Hg-lamp/HPLC, using a 150 W Hg-lamp of Heraeus with Pyrex filter (2.3 mm) and a Teflon capillary tube with 0.3 mm inside diameter and a total length of 10 m. 3.6. mg of the sample is dissolved in 16 ml of MeOH and 10 μl of this solution injected. The degradation products are not separated. UV-absorption at a wavelength of 358 nm of the irradiated solution is measured periodically up to 14 minutes and the result is compared with the corresponding photostability of butyl methoxy dibenzoylmethane. The product was detected in >90%, indicating photostability, whereas only 16% of butyl methoxy dibenzoylmethane could be detected after 14 minutes of irradiation.
Alternatively, the measurement is performed according to the protocol described in the International Journal of Cosmetic Science 18, 167-177 (1996).

[2] = Solubility measurement in cosmetic solvents (saturated solution, UV spectroscopy); conditions: for solubility in Cétiol LC: Cétiol LC (cocoyl caprylate caprate); for solubility in Cétiol LC / solubility in Crodamol DA: room temperature, 18 hours; for solubility in Crodamol DA: Crodamol DA (diisopropyl adipate)
Protocol: An excess of the UV sunscreen was placed in a flask, containing Cétiol LC (cocoyl caprylate caprate) and Crodamol DA (diisopropyl adipate), respectively. The suspension was mixed and treated in an ultrasound bath for 10 minutes. After standing at room temperature for 18 hours, the solution over the remaining crystals was filtered through a millipore microfilter (pore size of 0.45 μm). The concentration of this saturated solution was determined by means of UV spectroscopy in comparison with a calibration curve.

Structure (SMILES) | photostability (in words) [1] | melting point [°C] | solubility in Cétiol LC [2] [%] | solubility in Crodamol DA (in words) ([2]; Crodamol DA) | solubility in Crodamol DA [2] [%] | product detected after irradiation ([1]; MeOH solution, 150 W Hg-lamp with Pyrex filter, UV-absorption at 358 nm, after 14 minutes of irradiation) [%] | solubility in Cétiol LC (in words) ([2]; Cétiol LC)
CCOCCOCCOc1ccc2nc(-c3ccc(C=C(C(=O)OCC)C(=O)OCC)cc3)oc2c1 [Example 8] | photostable | 43 to 45 | 4.6 |  |  |  | 
CCCCC(CC)COc1ccc2nc(-c3ccc(C=C(C(=O)OCC)C(=O)OCC)cc3)oc2c1 (stereo not shown) [Example 7] | photostable | 50 to 52 | 10.2 |  |  |  | 
C=C(COc1ccc2nc(-c3ccc(C=C(C(=O)OCC)C(=O)OCC)cc3)oc2c1)[Si](C)(O[Si](C)(C)C)O[Si](C)(C)C [Example 9] | excellent photostability |  |  | unlimited solubility |  |  | 
CCCCC(CC)COC(=O)/C(C#N)=C/c1ccc(-c2nc3cc(C(C)(C)C)ccc3o2)cc1 (stereo not shown) [Example 2, 2-Cyano-3-{4-[5-tert.-butyl-benzoxazol-2-yl]-phenyl}-acrylic acid 2-ethylhexyl ester] | photostable | 80 to 81 | 3.8 |  | 7.4 |  | 
CCOC(=O)C(=Cc1ccc(-c2nc3ccccc3o2)cc1)C(=O)OCC [Example 1, 2-(4-Benzoxazol-2-yl-benzylidene)-malonic acid diethyl ester] |  | 99 to 102 | 4.5 |  | 11 | > 90 | 
CCCCOC(=O)C(=Cc1ccc(-c2nc3ccccc3o2)cc1)C(=O)OCCCC [Example 3, 2-(4-Benzoxazol-2-yl-benzylidene)-malonic acid dibutyl ester] | photostable |  |  |  |  |  | miscible
CCOC(=O)C(=Cc1ccc(-c2nc3ccc(O)cc3o2)cc1)C(=O)OCC [Example 6, 2-(4-[6-Hydroxy-benzoxazol-2-yl]-benzylidene)-malonic acid diethyl ester] | photostable | 153 to 155 |  |  | 1.6 |  | 
CCCCC(CC)COC(=O)/C(C#N)=C/c1ccc(-c2nc3ccccc3o2)cc1 (stereo not shown) [Example 4, 2-Cyano-3-{4-benzoxazol-2-yl-phenyl}-acrylic acid 2-ethylhexyl ester] | photostable after E/Z isomerisation | 84 to 85 | 1.6 |  | 2.8 |  | 
